Molecules are shown by their SMILES. Where a chain is given by its changes, count along the chain named. pIC50: −log10 of the molar value. Like-named read-outs stand apart in the source and are kept apart here.

One assay has as its target T1, BGT1 Q299L (Homo sapiens, UniProt P48065, Q299L).
T1 construct: expressed in transfected cells; host or cells: tsA201 (transformed HEK293), transient
T1 sequence (P48065 1-614 Q299L): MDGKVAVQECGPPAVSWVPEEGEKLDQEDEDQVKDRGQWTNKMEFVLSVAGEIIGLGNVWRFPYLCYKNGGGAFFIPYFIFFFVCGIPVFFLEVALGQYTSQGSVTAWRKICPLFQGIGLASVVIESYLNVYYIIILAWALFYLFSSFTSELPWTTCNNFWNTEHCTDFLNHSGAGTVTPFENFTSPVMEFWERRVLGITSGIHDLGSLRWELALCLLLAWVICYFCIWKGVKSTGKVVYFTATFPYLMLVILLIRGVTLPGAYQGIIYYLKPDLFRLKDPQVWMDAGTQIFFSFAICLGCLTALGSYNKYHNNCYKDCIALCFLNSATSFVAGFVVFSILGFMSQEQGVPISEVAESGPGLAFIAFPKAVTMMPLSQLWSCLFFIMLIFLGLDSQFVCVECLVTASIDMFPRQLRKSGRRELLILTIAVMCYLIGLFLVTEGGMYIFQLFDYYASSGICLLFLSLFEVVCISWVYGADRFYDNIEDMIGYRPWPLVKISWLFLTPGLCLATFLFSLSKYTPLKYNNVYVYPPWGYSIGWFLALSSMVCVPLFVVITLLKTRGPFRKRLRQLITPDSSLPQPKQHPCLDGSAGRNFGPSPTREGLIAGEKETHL
Kind of assay: [3H]GABA uptake assay, transient expression in tsA201 cells. The format is cell-based. The note with it: for pIC50: read-out: IC50. The source says:
The residue Q299 in human BGT1 corresponds to leucine in all other GATs (human, rat, mouse), while E52 corresponds to tyrosine in GAT1 (human, rat, mouse) but is conserved among GAT2, GAT3 and BGT1 (human, rat, mouse) (Figure 6A) ([Kickinger et al., 2019]).
FIGURE 6 (A) Pocket alignment of the orthosteric site of the four GAT subtypes colored according to the default ClustalX color scheme ([Larkin et al., 2007]). The pocket was defined as all corresponding GAT residues (15 in total) that are within a distance of 4.5 Å of the co-crystallized ligand leucine in the homologous LeuT crystal structure (PDB ID 2A65) ([Yamashita et al., 2005]) according to the alignment by Kickinger et al. ([Kickinger et al., 2019]). The mutated residues in BGT1 and the corresponding residues in GAT1-3 are indicated by a red box. The numbering of all residues within the orthosteric pocket can be found in the Supplementary Table S1.
The tsA201 cell line (a transformed HEK293 cell line), the Flp-In CHO cell lines stably expressing human (h) GATs and the HEK293 cell line stably expressing human α1β2γ2 GABAA receptors have been described previously and were cultured accordingly ([Al-Khawaja et al., 2014]; [Falk-Petersen et al., 2020]). The tsA201 cell line used for transient expression of hGATs was transfected with DNA constructs (8 μg per 10 cm plate) using 40 μL PolyFect transfection reagent according to the manufacturer’s protocol (Qiagen).
Briefly, cells were seeded in white 96-well plates (White Opaque Tissue Culture (TC) plated 96-well Microplate) pre-coated with PDL. Medium was removed on the following day and cells washed with 100 µL/well assay buffer (HBSS supplemented with 20 mM HEPES, 1 mM CaCl2 and 1 mM MgCl2, pH 7.4). […] The cells were washed 3 times with 100 µL/well ice-cold assay buffer, 150 µL/well MicroScint™20 was subsequently added before the plate was shaken for at least 1 h. The plate was counted in a Packard TopCounter microplate scintillation counter (PerkinElmer) for 3 min per well. […] Data presented is the pooled data of at least three independent experiments with three technical replicates if not stated otherwise in figure legends. Concentration–response curves were fitted by non-linear regression to the sigmoidal concentration-response model with GraphPad Prism (version 9.0.0, GraphPad Software, San Diego, CA, United States) as described ([Lie et al., 2020]).

The target of a further assay is T2, BGT1 (Homo sapiens, UniProt P48065).
T2 construct: expressed in transfected cells
T2 sequence (P48065 1-614): T1 sequence (P48065 1-614 Q299L) with L299Q
The experiment in a line: FLIPR membrane potential (FMP) assay, CHO cells stably expressing BGT1. Format: cell-based. The note with it: for Inhibitor activity: in the presence of GABA EC50 concentration ([…] µM); for Substrate activity (translocation by BGT1): tested as substrates, without GABA; for Kb: Gaddum-Schild analysis.

With `CN[C@@]12CC[C@H](C(=O)O)[C@@H]1C2` [compound 2], at BGT1 Q299L (BGT1 Q299L, tsA201 cells), the pIC50 is 4.23. Also, the IC50 on BGT1 Q299L (BGT1 Q299L, tsA201 cells, read-out: pIC50 ± S.E.M. (converted)) is 50.1 µM. On BGT1, the Inhibitor activity result is on record as “behaved as inhibitors” and the “Substrate activity (translocation by BGT1)” value is “no increase in fluorescence signals”.

Turning to `N[C@@]12CC[C@H](C(=O)O)[C@@H]1C2` [bicyclo-GABA, (1S,2S,5R)-5-aminobicyclo[3.1.0]hexane-2-carboxylic acid], the “Decrease in inhibitory activity compared to wildtype” value on BGT1 Q299L (BGT1 Q299L vs BGT1 wt) was determined as 32 times. Further, the pIC50 at BGT1 Q299L (BGT1 Q299L, tsA201 cells) was 4.32. The Kb is 0.47 µM at BGT1 (n = 4, read-out: KB) and 0.398 µM on BGT1 (read-out: pKB (converted)). Also, the “Preference for BGT1 over α1β2γ2 GABAA receptors” value at BGT1 (according to the FMP data) stood at 13 times. In addition, on BGT1 (co-applied with increasing concentrations of GABA, n = 4), the “Schild slope (Gaddum-Schild analysis)” value is listed as 1.02. Also, on BGT1, the Inhibitor activity entry is “behaved as inhibitors”. In addition, at BGT1, the “Substrate activity (translocation by BGT1)” value was “no increase in fluorescence signals”.

By pIC50 is commonly meant −log10 of the IC50, conventionally taken in molar units.

(Values after publication PMC8476755 (Frontiers in Chemistry, 2021).)
